Where two headings read alike, the source gives them in different places.
How the values were obtained:
PDK1 = PDK1 (Homo sapiens (Human), UniProt O15530); assay: PDK1 kinase assay (coupled PDK1/AKT/FAM-crosstide assay, IMAP fluorescence polarization); assay type: biochemical
In short: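 Inhibition is derived by 4-parameter fitting of ΔmP from an IMAP fluorescence polarization read of FAM-crosstide (100 nM) phosphorylation. The cascade ran 30 min at 25 °C with 40 μM ATP, using insect-cell GST-PDK1 51-359 (0.75 nM) driving 10 nM unphosphorylated AKT2 140-467-PIFtide fusion.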

[1] = system: phospho-akt (Thr308) in PC-3 cells; assay: Inhibition of phospho-akt (Thr308) in PC-3 cells, MSD phospho-akt 308 ELISA kit; assay type: cell-based; conditions: inhibition of P308 Akt in PC-3 cells using MSD, 2 hours, no serum, read-out: EC50
In short: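 Phospho-Akt (Thr308) levels were measured by MSD ELISA after PC-3 cells received compound for 2 hours in serum-free medium. Controls: DMSO (high), 5 μM wortmannin (low).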

Sequence of PDK1 (O15530 51-359): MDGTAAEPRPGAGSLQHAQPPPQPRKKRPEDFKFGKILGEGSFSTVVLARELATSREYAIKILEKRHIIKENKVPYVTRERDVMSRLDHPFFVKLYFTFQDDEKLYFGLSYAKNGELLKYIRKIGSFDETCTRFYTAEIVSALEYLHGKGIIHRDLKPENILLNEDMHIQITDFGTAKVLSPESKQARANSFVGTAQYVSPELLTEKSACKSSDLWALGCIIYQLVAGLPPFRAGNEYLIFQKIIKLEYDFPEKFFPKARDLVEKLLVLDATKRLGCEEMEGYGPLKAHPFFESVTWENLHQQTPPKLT

Row | SMILES | IC50 (PDK1; inhibition of PDK1 in vitro) [nM] | EC50 ([1]; Homo sapiens) [nM] | EC50 ([1]; Homo sapiens, PC-3, 2 h) [nM] | IC50 (PDK1) [nM] | EC50 [1] [nM]
1 | C[C@H](NC(=O)c1cc(C#N)cnc1NCc1cnc(-c2cnc3[nH]ncc3c2)nc1)c1ccc(F)cc1 [Example 69, 5-Cyano-N-[(S)-1-(4-fluoro-phenyl)-ethyl]-2-{[2-(1H-pyrazolo[3,4-b]pyridin-5-yl)-pyrimidin-5-ylmethyl]-amino}-nicotinamide] | 100 to 1000 | > 10000 |  |  | 
2 | C[C@H](NC(=O)c1cc(C#N)cnc1NCc1ccc(-c2cnc(N)c(CCCN)n2)cc1)c1ccc(F)cc1 [Example 70, 2-{4-[5-Amino-6-(3-amino-propyl)-pyrazin-2-yl]-benzylamino}-5-cyano-N-[(S)-1-(4-fluoro-phenyl)-ethyl]-nicotinamide] | < 100 | < 1000 |  |  | 
3 | C[C@H](NC(=O)c1cc(C#N)cnc1NCc1ccc(-c2cnc(N)c(CCCCN)n2)cc1)c1ccc(F)cc1 [Example 71, 2-{4-[5-Amino-6-(4-amino-butyl)-pyrazin-2-yl]-benzyl-amino}-5-cyano-N-[(S)-1-(4-fluoro-phenyl)-ethyl]-nicotinamide] | < 100 | < 1000 |  |  | 
4 | NCCCc1nc(-c2ccc(CNc3ncc(C(F)(F)F)cc3C(=O)NCc3ccc(F)c(F)c3)cc2)cnc1N [Example 72, 2-{4-[5-Amino-6-(3-amino-propyl)-pyrazin-2-yl]-benzyl-amino}-N-(3,4-difluoro-benzyl)-5-trifluoromethyl-nicotinamide] | < 100 | 1000 to 10000 |  |  | 
5 | NCCCc1nc(-c2ccc(CNc3ncc(C(F)(F)F)cc3C(=O)Nc3ccc(F)cc3)cc2)cnc1N [Example 73, 2-{4-[5-Amino-6-(3-amino-propyl)-pyrazin-2-yl]-benzyl-amino}-N-(4-fluoro-phenyl)-5-trifluoromethyl-nicotinamide] | < 100 | < 1000 |  |  | 
6 | C[C@H](NC(=O)c1cc(C#N)cnc1NCc1ccc(-c2cnc(N)c(CCCN)n2)nc1)c1ccc(F)cc1 [Example 74, 2-({6-[5-Amino-6-(3-amino-propyl)-pyrazin-2-yl]-pyridin-3-ylmethyl}-amino)-5-cyano-N-[(S)-1-(4-fluoro-phenyl)-ethyl]-nicotinamide] | 100 to 1000 |  | 1000 to 10000 |  | 
7 | Nc1ncc(-c2ccc(CNc3ncc(C(F)(F)F)cc3C(=O)Nc3ccc(F)cc3)cc2)nc1CC[C@@H]1CCCN1 [Example 75, 2-{4-[5-Amino-6-((S)-2-pyrrolidin-2-yl-ethyl)-pyrazin-2-yl]-benzylamino}-N-(4-fluoro-phenyl)-5-trifluoromethyl-nicotinamide] | < 100 | 1000 to 10000 |  |  | 
8 | Nc1ncc(-c2ccc(CNc3ncc(C(F)(F)F)cc3C(=O)Nc3ccc(F)cc3)cc2)nc1CCC1CCNC1 (stereo not shown) [Example 76, 2-{4-[5-Amino-6-(2-pyrrolidin-3-yl-ethyl)-pyrazin-2-yl]-benzylamino}-N-(4-fluoro-phenyl)-5-trifluoromethyl-nicotinamide] | < 100 | < 1000 |  |  | 
9 | Nc1ncc(-c2ccc(CNc3ncc(C(F)(F)F)cc3C(=O)Nc3ccc(F)cc3)cc2)nc1CCC1CCCNC1 (stereo not shown) [Example 77, 2-{4-[5-Amino-6-(2-piperidin-3-yl-ethyl)-pyrazin-2-yl]-benzylamino}-N-(4-fluoro-phenyl)-5-trifluoromethyl-nicotinamide] | < 100 | 1000 to 10000 |  |  | 
10 | C[C@H](NC(=O)c1nc(C#N)cnc1NCc1ccc(-c2cnc(N)c(CC[C@@H]3CCCN3)n2)cc1)c1ccc(F)c(F)c1 [Example 78, 3-{4-[5-Amino-6-((S)-2-pyrrolidin-2-yl-ethyl)-pyrazin-2-yl]-benzylamino}-6-cyano-pyrazine-2-carboxylic acid [(S)-1-(3,4-difluoro-phenyl)-ethyl]-amide] | < 100 | 1000 to 10000 |  |  | 
11 | C[C@H](NC(=O)c1nc(C#N)cnc1NCc1ccc(-c2cnc(N)c(CCC3CCCNC3)n2)cc1)c1ccc(F)c(F)c1 (stereo partly shown) [Example 81] |  | 1000 to 10000 |  | < 100 | 
12 | C[C@H](NC(=O)c1cc(C#N)cnc1NCc1ccc(-c2cnc(N)c(CCC(C)(C)N)n2)cc1)c1ccc(F)cc1 [Example 82, 2-{4-[5-Amino-6-(3-amino-3-methyl-butyl)-pyrazin-2-yl]-benzylamino}-5-cyano-N-[(S)-1-(4-fluoro-phenyl)-ethyl]-nicotinamide] | < 100 | < 1000 |  |  | 
13 | CC(C)(N)CCc1nc(-c2ccc(CNc3ncc(C(F)(F)F)cc3C(=O)Nc3ccc(F)cc3)cc2)cnc1N [Example 83, 2-{4-[5-Amino-6-(3-amino-3-methyl-butyl)-pyrazin-2-yl]-benzylamino}-N-(4-fluoro-phenyl)-5-trifluoro-methyl-nicotinamide] | < 100 | < 1000 |  |  | 
14 | C[C@H](NC(=O)c1nc(C#N)cnc1NCc1ccc(-c2cnc(N)c(CCC(C)(C)N)n2)cc1)c1ccc(F)c(F)c1 [Example 84, 3-{4-[5-Amino-6-(3-amino-3-methyl-butyl)-pyrazin-2-yl]-benzylamino}-6-cyano-pyrazine-2-carboxylic acid [(S)-1-(3,4-difluoro-phenyl)-ethyl]-amide] | < 100 | < 1000 |  |  | 
15 | CC(N)CCc1nc(-c2ccc(CNc3ncc(C#N)cc3C(=O)N[C@@H](C)c3ccc(F)cc3)cc2)cnc1N (stereo partly drawn) [Example 85, 2-{4-[5-Amino-6-(3-amino-butyl)-pyrazin-2-yl]-benzylamino}-5-cyano-N-[(S)-1-(4-fluoro-phenyl)-ethyl]-nicotinamide] | < 100 | < 1000 |  |  | 
16 | CC(N)CCc1nc(-c2ccc(CNc3ncc(C(F)(F)F)cc3C(=O)Nc3ccc(F)cc3)cc2)cnc1N (stereo not shown) [Example 86, 2-{4-[5-Amino-6-(3-amino-butyl)-pyrazin-2-yl]-benzylamino}-N-(4-fluoro-phenyl)-5-trifluoro-methyl-nicotinamide] | < 100 |  |  |  | < 1000
17 | CC(N)CCc1nc(-c2ccc(CNc3ncc(C#N)nc3C(=O)N[C@@H](C)c3ccc(F)c(F)c3)cc2)cnc1N (stereo partly drawn) [Example 87, 3-{4-[5-Amino-6-(3-amino-butyl)-pyrazin-2-yl]-benzylamino}-6-cyano-pyrazine-2-carboxylic acid [(S)-1-(3,4-difluoro-phenyl)-ethyl]-amide] | < 100 | < 1000 |  |  | 
18 | C[C@H](NC(=O)c1cc(C#N)cnc1NCc1ccc(-c2cnc(N)c(CCCN3CCOCC3)n2)cc1)c1ccc(F)cc1 [Example 88, 2-{4-[5-Amino-6-(3-morpholin-4-yl-propyl)-pyrazin-2-yl]-benzyl-amino}-5-cyano-N-[(S)-1-(4-fluoro-phenyl)-ethyl]-nicotinamide] | < 100 | < 1000 |  |  | 
19 | C[C@H](NC(=O)c1cc(C#N)cnc1NCc1ccc(-c2cnc(N)c(CCCCN3CCOCC3)n2)cc1)c1ccc(F)cc1 [Example 89, 2-{4-[5-Amino-6-(4-morpholin-4-yl-butyl)-pyrazin-2-yl]-benzyl-amino}-5-cyano-N-[(S)-1-(4-fluoro-phenyl)-ethyl]-nicotinamide] | < 100 | < 1000 |  |  | 
20 | C[C@H](NC(=O)c1cc(C#N)cnc1NCc1ccc(-c2cnc(N)c(CCCCO)n2)cc1)c1ccc(F)cc1 [Example 90, 2-{4-[5-Amino-6-(4-hydroxy-butyl)-pyrazin-2-yl]-benzyl-amino}-5-cyano-N-[(S)-1-(4-fluoro-phenyl)-ethyl]-nicotinamide] | < 100 | < 1000 |  |  | 
21 | C[C@H](NC(=O)c1cc(C#N)cnc1NCc1ccc(-c2cnc(N)c(CCCO)n2)cc1)c1ccc(F)cc1 [Example 91, 2-{4-[5-Amino-6-(3-hydroxy-propyl)-pyrazin-2-yl]-benzyl-amino}-5-cyano-N-[(S)-1-(4-fluoro-phenyl)-ethyl]-nicotinamide] | < 100 | < 1000 |  |  | 
22 | COCCCc1nc(-c2ccc(CNc3ncc(C#N)cc3C(=O)N[C@@H](C)c3ccc(F)cc3)cc2)cnc1N [Example 92, 2-{4-[5-Amino-6-(3-methoxy-propyl)-pyrazin-2-yl]-benzyl-amino}-5-cyano-N-[(S)-1-(4-fluoro-phenyl)-ethyl]-nicotinamide] | < 100 | 1000 to 10000 |  |  | 
23 | CNCCCc1nc(-c2ccc(CNc3ncc(C#N)cc3C(=O)N[C@@H](C)c3ccc(F)cc3)cc2)cnc1N [Example 93, 2-{4-[5-Amino-6-(3-methylamino-propyl)-pyrazin-2-yl]-benzyl-amino}-5-cyano-N-[(S)-1-(4-fluoro-phenyl)-ethyl]-nicotinamide] | < 100 | < 1000 |  |  | 
24 | C[C@H](NC(=O)c1nc(C#N)cnc1NCc1ccc(-c2cnc(N)c(CCCN)n2)cc1)c1ccc(F)c(F)c1 [Example 94, 3-{4-[5-Amino-6-(3-amino-propyl)-pyrazin-2-yl]-benzyl-amino}-6-cyano-pyrazine-2-carboxylic acid [(S)-1-(3,4-difluoro-phenyl)-ethyl]-amide] | < 100 | < 1000 |  |  | 
25 | C[C@H](NC(=O)c1nc(C#N)cnc1NCc1ccc(-c2cnc(N)c(CCCO)n2)cc1)c1ccc(F)c(F)c1 [Example 95, 3-{4-[5-Amino-6-(3-hydroxy-propyl)-pyrazin-2-yl]-benzyl-amino}-6-cyano-pyrazine-2-carboxylic acid [(S)-1-(3,4-difluoro-phenyl)-ethyl]-amide] | < 100 | < 1000 |  |  | 
26 | C[C@H](NC(=O)c1cc(C#N)cnc1NCc1ccc(-c2n[nH]c3ncnc(N)c23)cc1)c1ccc(F)cc1 [Example 96, 2-[4-(4-Amino-1H-pyrazolo [3,4-d]pyrimidin-3-yl)-benzylamino]-5-cyano-N-[(S)-1-(4-fluoro-phenyl)-ethyl]-nicotinamide] | < 100 | 1000 to 10000 |  |  | 

— US10030016B2 (Sunesis Pharmaceuticals, Inc., priority 2009, dated 2018)
